Reference: patent US5179093A, “Quinoline-diones” (Schering Corporation, priority 1991, dated 1993)
Values after ≈ are worked out from the molar mass of the structure shown.

Key:
[1] = Compound toxicity assay: inhibition of HeLa cell translation (^3 H-LEU assay); format: cell-based; conditions: human; HeLa cells, overnight (24 hours) treatment, tritiated leucine incorporation; read-out: CYTOTOXICITY ^3 H--LEU ASSAY IC50
Description: HeLa cells were treated with inhibitory compound for 24 hours, after which levels of translational activity were assayed.
For assay of translational activity, HeLa cultures were grown to 80% confluency in 96 well microtiter plates, treated with appropriate concentrations of compound in 2% EMEM during an overnight incubation at 37° C., then rinsed with HBSS and overlaid with […] of 2% EMEM containing 8 uCi of tritiated leucine (^3 H-LEU, 141 Ci/mMol, Amersham Corp., Arlington Heights Ill.). After 1 hr incubation at 36.5° C., the cells were rinsed twice with phosphate buffered saline (PBS) and lysed in 400 ul/well of 1×PBS, 0.5% sodium dodecyl sulphate (SDS). After a 10 minute incubation at 36.5° C., the contents of the well were transferred to a well in a Millititer HA microfiltration plate (Millipore Corp., Bedford, MA). The TCA insoluble proteins were precipitated onto the filter disc by a 10 minute fixation with 5% TCA, followed by filtration under vacuum and three 10 minute rinses with 95% ethanol. The filters were dried at room temperature, cut from the milltitier plate and transferred to scintillation vials. TCA precipitable counts were assayed in 5 ml of Scintisol (Isolab, Akron, Ohio). The inhibitory activity of a compound was plotted versus the concentration and an IC50 value (that concentration of the compound required to decrease cellular translational activity by 50%) was derived for each compound.

HSV-2 (strain MS) = test: Transient expression of beta galactosidase in transfected HeLa cells superinfected with HSV-2 (HSV-β-GAL assay); format: cell-based; conditions: Human alphaherpesvirus 2, plasmid pON 245^ori-, moi=5 pfu/cell, 24 hours, read-out: ANTI-HSV ACTIVITY HSV-β-GAL ASSAY IC50
Description: HeLa and Vero cell cultures were maintained in Eagles Minimal Essential Medium (EMEM) which was supplemented with glutamine, penicillin, streptomycin and 10% fetal calf serum (10% EMEM). Stock cultures of HSV-2 (strain MS available from ATCC VR-540) were grown in and harvested from Vero cells. Viral stocks were titered in Vero cells according to established procedures.
Plasmid pON 245^ori- contains the promoter of the HSV-1 thymidine kinase (tk) gene located immediately 5' of the E. coli lac Z gene. In this arrangement, the tk promoter controls transcription from the bacterial gene in transient expression assays. Additionally, an SV40 polyadenylation signal is present at the 3' end of the lac Z gene to allow for the efficient translation of the mRNA in eucaryotic cells. The expression of beta galactosidase in a transient assay using pON 245^ori- is dependent upon superinfection of the transfected cells with HSV. […] For example see U.S. application Ser. No. 07/435,491 filed Sep. 5, 1989, the disclosure of which is incorporated herein by reference thereto.
HeLa cells were seeded into 96 well microtiter plates and allowed to grow to 80% confluency (approximately 35,000 cells/well). One half microgram of plasmid pON 245^ori- DNA was introduced into the cells of each well by the […] precipitation technique (Grahman and Van der Eb, 1973). Four to six hours later, the cells were rinsed with hank's Balanced Salt Solution (HBSS), overlaid with 10% EMEM and incubated at 37° C. At 24 hrs post-transfection, cells were rinsed, overlaid with 10% EMEM again and re-incubated at 37° C. At 48 hrs post-transfection, cells were rinsed and overlaid with either EMEM containing 2% fetal calf serum (2% EMEM), 2% EMEM containing HSV-2 (strain MS, Multiplicity of Infection [moi]=5 pfu/cell) or 2% EMEM containing HSV-2 and the appropriate concentration of Schering compound to be tested. Twenty-four hours later, the cells were harvested and assayed for beta galactosidase activity as described below.
All determinations of beta galactosidase activity were performed in 96 well microtiter plates. The intracellular level of beta galactosidase activity in each well was determined from cell lysates of the monolayer cultures. Aliquots were assayed by incubation in the presence of beta galactosidase substrate, 4-methylumbelliferyl-β-D-galactoside (MUG, 125 ug/ml, Sigma), for 2 hours. The generation of fluorescent product was quantified on a Microfluor microfluorimeter (Dynatech) after addition of 0.1M glycine, pH 10.3 (Spaete and Mocarski, 1985). The inhibitory activity of a compound was plotted versus the concentration and an IC50 value (the concentration of compound required to reduce beta glactosidase expression by 50%) was obtained for each compound tested.

Row | IC50 (HSV-2 (strain MS)) [µg/mL] | Compound | CC50 at 24 h [1] [µg/mL]
1 | 8 (≈ 34.9 µM) | C=CCNC=C1C(=O)Oc2ccccc2C1=O [EX. 34, E,Z-3-[Allylaminomethylene]-dihydrobenzo-[b]-pyran-2,4-dione] | 46 (≈ 201 µM)
2 | 4 (≈ 9.9 µM) | O=C1C(=CNCc2ccncc2)C(=O)N(Cc2ccccc2)c2ccc(Cl)cc21 [EX. 17, (E,Z1-Benzyl-3-[(4-Pyridylmethylamino)methylene-6-Chloro-Quinolin-2,4(1H)-Dione] | 17 (≈ 42.1 µM)
3 | 4 (≈ 10.8 µM) | CCCCCCCN1C(=O)C(=CNN2CCOCC2)C(=O)c2ccccc21 [EX. 39, (E,Z)-1-heptyl-3-[(4-morpholino)aminomethylene]-quinolin-2,4(1H)dione] | 29 (≈ 78.1 µM)
4 | 7 (≈ 23.9 µM) | CCNC=C1C(=O)c2cccnc2N(c2ccccc2)C1=O [EX. 35, 1-Phenyl-E,Z-3-[ethylaminomethylene]-3,4-dihydro-2H-[1,8]-naphthyridine-2,4-dione] | > 50
5 | 3 (≈ 7.99 µM) | O=C1C(=CNCc2ccncc2)C(=O)N(Cc2ccccc2)c2ccsc21 [EX. 46] | 23 (≈ 61.3 µM)
6 | 9 (≈ 30.8 µM) | CN1C(=O)C(=CNCc2ccccc2)C(=O)c2ccccc21 [EX. 14, (E,Z) 1-Methyl-3-Benzylaminomethylene-Quinolin-2,4(1H)-Dione] | 27 (≈ 92.4 µM)
7 | 4 (≈ 11 µM) | CCCCCCN1C(=O)C(=CNCc2ccncc2)C(=O)c2ccccc21 [EX. 26, (E,Z)1Hexyl-3-[(4-Pyrigylmethylamino)methylene-Quinolin-2,4(1H)-Dione] | 43 (≈ 118 µM)
8 | 22 (≈ 61.9 µM) | O=C1C(=CNCc2ccccc2)C(=O)N(c2ccccc2)c2ncccc21 [EX. 36, 1-Phenyl-E,Z-3-[benzylaminomethylene]-3,4-dihydro-2H-[1,8]-naphthyridine-2,4-dione] | 42 (≈ 118 µM)
9 | 7 (≈ 19.7 µM) | O=C1C(=CNCc2ccncc2)C(=O)N(c2ccccc2)c2ccccc21 [EX. 28, (E,Z)1-Phenyl-3-[(-Pyridylmethylamino)methylene]Quinolin-2,4(1H)-Dione] | 25 (≈ 70.3 µM)
10 | < 3 | Cc1cccc2c1N(Cc1ccccc1)C(=O)C(=CNCc1ccncc1)C2=O [EX. 21, (E,Z)1-Benzyl-3-[(4-Pyridylmethylamino)methylene]-8-Methyl-Quinolin-2,4(1H)-Dione] | 29 (≈ 75.6 µM)
11 | 22 (≈ 61.7 µM) | Cc1cccc(NC=C2C(=O)c3cccnc3N(c3ccccc3)C2=O)n1 [EX. 37, 1-Phenyl-E,Z-3-[(6-methyl-2-pyridylamino)methylene]-3,4-dihydro-2H-[1,8]-naphthyridine-2,4-dione] | 56 (≈ 157 µM)
12 | < 3 | CCCCCCN1C(=O)C(=CNCc2ccccc2)C(=O)c2ccccc21 [EX. 25, (E,Z)1-hexyl-3-benzyleminomethylene-quinolin-2,4(1H)-Dione] | 37 (≈ 102 µM)
13 | 13 (≈ 32.2 µM) | O=C1C(=CNCc2ccncc2)C(=O)N(Cc2ccccc2)c2cc(Cl)ccc21 [EX. 19, (E,Z)1-Benzyl-3-[(4-Pyridylmethylamino)methylene]7-Chloro-Quinolin-2,4(1H)-Dione] | 40 (≈ 99 µM)

Second part, the compound before the results:

Row | Compound | IC50 (HSV-2 (strain MS)) [µg/mL] | CC50 at 24 h [1] [µg/mL]
14 | Cc1ccc2c(c1)C(=O)C(=CNCc1ccncc1)C(=O)N2Cc1ccccc1 [EX. 15, (E,Z)1-Benzyl-3-[4-Pyridylmethylamino)methylene]-6-Methyl-Quinolin-2,4(1H)-Dione] | 6 (≈ 15.6 µM) | 37 (≈ 96.5 µM)
15 | O=C1C(=CNCc2ccccc2)C(=O)N(Cc2ccccc2)c2cc(Cl)ccc21 [EX. 18, (E,Z)1-Benzyl-3-Benzylaminomethylene-7-Chloro-Quinolin-2,4(1H)-Dione] | 6 (≈ 14.9 µM) | 10 (≈ 24.8 µM)
16 | CCCCCCN1C(=O)C(=CN[C@H]2C(O)O[C@H](CO)[C@@H](O)[C@@H]2O)C(=O)c2ccccc21 (some centres unmarked) [EX. 42, (E,Z)-1-hexyl-3-(D) glucosaminomethylene-quinolin-2,4(1H)dione] | 10 (≈ 23 µM) | 25 (≈ 57.5 µM)
17 | CC(NCc1ccccc1)=C1C(=O)Oc2ncccc2C1=O [EX. 31, 3-[1-Benzylaminoethylidine]-2,4-dioxo-2,3-dihydro-4H-pyrido-[2,3-b]-pyran] | 11 (≈ 37.4 µM) | > 100
18 | CCCCCCCN1C(=O)C(=CNCc2ccncc2)C(=O)c2ccccc21 [EX. 30, (E,Z)1-Heptyl-3-[(4-Pyridylmethylamino)methylene]-Quinolin-2,4(1H)-Dione] | 3 (≈ 7.95 µM) | 20 (≈ 53 µM)
19 | CN(C)C=C1C(=O)c2cccnc2N(c2ccccc2)C1=O [EX. 32, 1-Phenyl-3-(dimethylaminomethylene)-3,4-dihydro-2H-[1,8]-naphthyridine-2,4-dione] | 18 (≈ 61.4 µM) | > 100
20 | O=C1C(=CNCc2cnc[nH]2)C(=O)N(Cc2ccccc2)c2ccccc21 [EX. 41, (E,Z)-1-benzyl-3-[(1H-5-imidazolylmethyl)aminomethylene]-quinolin-2,4(1H)dione] | 8 (≈ 22.3 µM) | 34 (≈ 94.9 µM)
21 | CCNC=C1C(=O)Oc2ncccc2C1=O [EX. 38, 3-(ethylaminomethylene)-2,4-dioxo 3,4-dihydro-2H-pyrido-[2,3-b]-pyran] | > 25 | 
22 | O=C1C(=CNCc2ccncc2)C(=O)N(Cc2ccccc2)c2ccccc21 [EX. 24, (E,Z)1-Benzyl-3-[(4-Pyridylmethylamino)methylene]-Quinolin-2,4(1H)-Dione] | 10 (≈ 27.1 µM) | > 100
23 | COc1ccc(OCCCOCN2C(=O)C(=CNCc3ccncc3)C(=O)c3ccccc32)c(Cl)c1 [EX. 43, (E,Z) 1-[3(2-chloro-4-methoxyphenoxy)-propyloxymethyl]-3-(4-pyridylmethylamino)methylene-quinolin-2,4(1H)dione] | 10 (≈ 19.7 µM) | 30 (≈ 59.1 µM)
24 | O=C1C(=CNCc2ccccc2)C(=O)N(c2ccccc2)c2ccccc21 [EX. 27, (E,Z)1-Phenyl-3-Benzylaminomethylene-Quinolin-2,4(1H)-Dione] | 4 (≈ 11.3 µM) | 10 (≈ 28.2 µM)
25 | CCNC=C1C(=O)c2ccccc2N(C)C1=O [EX. 44, (E,Z) 1-methyl-3-ethylaminomethylene-quinolin-2,4(1H)dione] | 14 (≈ 60.8 µM) | 43 (≈ 187 µM)
26 | CCCCCCCN1C(=O)C(=CNC23CC4CC(CC(C4)C2)C3)C(=O)c2ccccc21 [EX. 40, (E,Z)-1-heptyl-3-[1-adamantylaminomethylene]-quinolin-2,4(1H)dione] | 5 (≈ 11.9 µM) | 33 (≈ 78.5 µM)
27 | O=C1C(=CNCc2ccccc2)C(=O)N(Cc2ccccc2)c2ccc(Cl)cc21 [EX. 16, (E,Z 1-Benzyl-3-Benzylaminomethylene-6-Chloro-Quinolin-2,4(1H)-Dione] | < 3 | 7 (≈ 17.4 µM)
28 | CCCCCCCN1C(=O)C(=CNCc2ccccc2)C(=O)c2ccccc21 [EX. 29, (E,Z)1-Heptyl-3-Benzylaminomethylene-Quinolin-2,4(1H)-Dione] | 5 (≈ 13.3 µM) | 16 (≈ 42.5 µM)
29 | CN1C(=O)C(=CNCc2ccncc2)C(=O)c2ccccc21 [EX. 22, (E,Z)1-Methyl-3-[(4-Pyridylmethylamino)methylene]Quinolin-2,4(1H)-Dione] | < 3 | 100 (≈ 341 µM)
30 | Cc1cccc2c1N(Cc1ccccc1)C(=O)C(=CNCc1ccccc1)C2=O [EX. 20, (E,Z) 1-Benzyl-3-Benzylaminomethylene-8-Methyl-Quinolin-2,4(1H)-Dione] | 3 (≈ 7.84 µM) | 10 (≈ 26.1 µM)
